The subject of this assay is NMNAT2. The assay can be described thus: NMNAT2-Hibit nano-luciferase activity in stably transfected U87MG cells, various concentrations, 24 hours. Type of assay: cell-based. To be noted: U87MG cells stably transfected with NMNAT2-Hibit luc plasmid. As for the experimental part: Selected compounds were tested in vitro. U87MG cells were stably transfected with NMNAT2-Hibit luc plasmid. Cells were treated with a test compound at various concentrations for 24 hours. Cells were then collected and assayed for nano-luciferase activity.
With `O=C(Cn1c2c(c3ccccc31)CC(C(=O)NCCc1ccccc1)CC2)NCc1ccco1` (stereo not drawn) [BC20262], the “E: compound efficacy for NMNAT2 activation (concentration giving >25% increase in NMNAT2 luciferase activity)” value is “++ (“++” >25% increase in NMNAT2 luciferase activity at >1 μM ≤25 μM.)”.
With `Cc1c(C)n(Cc2ccccc2F)c2ccc(C(=O)N(CCCN3CCOCC3)Cc3ccco3)cc12` [BC20263], the “E: compound efficacy for NMNAT2 activation (concentration giving >25% increase in NMNAT2 luciferase activity)” value was “++ (“++” >25% increase in NMNAT2 luciferase activity at >1 μM ≤25 μM.)”.
Consider `Cc1c(C)n(Cc2cccc(F)c2)c2ccc(C(=O)N(CCCN3CCOCC3)Cc3ccco3)cc12` [BC20264], for which the “E: compound efficacy for NMNAT2 activation (concentration giving >25% increase in NMNAT2 luciferase activity)” value is listed as “++ (“++” >25% increase in NMNAT2 luciferase activity at >1 μM ≤25 μM.)”.
The value for `Cc1c(C)n(Cc2cccc(F)c2)c2ccc(C(=O)NCc3cccnc3)cc12` [BC20265] was “++ (“++” >25% increase in NMNAT2 luciferase activity at >1 μM ≤25 μM.)”.
The value for `CCCCN(CC)Cc1ccc(CNC(=O)c2ccc3c(c2)c(C)c(C)n3Cc2ccccc2C)o1` [BC20266] was “++ (“++” >25% increase in NMNAT2 luciferase activity at >1 μM ≤25 μM.)”.
The value for `Cc1ccc(Cn2cc(C3CCN(Cc4ccncc4)C(=O)C3)c3ccccc32)cc1` (stereo not drawn) [BC20267] was “++ (“++” >25% increase in NMNAT2 luciferase activity at >1 μM ≤25 μM.)”; that for `Cc1ccc(Cn2cc(C3CCN(CCc4cccc(C)c4)C(=O)C3)c3ccccc32)cc1` (stereo not drawn) [BC20268] was “+ (“+” >25% increase in NMNAT2 luciferase activity at >25 μM.)”; that for `Cc1ccc(C)c(Cn2cc3c4c(cccc42)C(=O)N(Cc2ccccc2F)CC3)c1` [BC20269] was “+ (“+” >25% increase in NMNAT2 luciferase activity at >25 μM.)”.
With `Cc1ccc(C)c(Cn2cc3c4c(cccc42)C(=O)N(Cc2cccc(F)c2)CC3)c1` [BC20270], the “E: compound efficacy for NMNAT2 activation (concentration giving >25% increase in NMNAT2 luciferase activity)” value was “+ (“+” >25% increase in NMNAT2 luciferase activity at >25 μM.)”.
The value for `Cc1ccc(C)c(Cn2cc3c4c(cccc42)C(=O)N(Cc2ccccc2C)CC3)c1` [BC20271] was “+ (“+” >25% increase in NMNAT2 luciferase activity at >25 μM.)”; that for `COc1ccc(CCN2CCc3cn(Cc4cc(C)ccc4C)c4cccc(c34)C2=O)cc1` [BC20272] was “+ (“+” >25% increase in NMNAT2 luciferase activity at >25 μM.)”.
The value for `Cc1ccc(C)c(Cn2cc3c4c(cccc42)C(=O)N(CCc2ccccc2C)CC3)c1` [BC20273] was “+ (“+” >25% increase in NMNAT2 luciferase activity at >25 μM.)”; that for `O=C1c2cccc3c2c(cn3Cc2cccc(F)c2)CCN1Cc1ccccc1F` [BC20274] was “+ (“+” >25% increase in NMNAT2 luciferase activity at >25 μM.)”; that for `O=C1c2cccc3c2c(cn3Cc2cccc(F)c2)CCN1Cc1cccc(F)c1` [BC20275] was “+ (“+” >25% increase in NMNAT2 luciferase activity at >25 μM.)”.
The value for `Cc1cccc(CN2CCc3cn(Cc4cccc(F)c4)c4cccc(c34)C2=O)c1` [BC20276] was “+ (“+” >25% increase in NMNAT2 luciferase activity at >25 μM.)”; that for `O=C1c2cccc3c2c(cn3Cc2cccc(F)c2)CCN1Cc1ccncc1` [BC20277] was “+ (“+” >25% increase in NMNAT2 luciferase activity at >25 μM.)”.
As for `COc1ccc(CCN2CCc3cn(Cc4cccc(F)c4)c4cccc(c34)C2=O)cc1` [BC20278], the “E: compound efficacy for NMNAT2 activation (concentration giving >25% increase in NMNAT2 luciferase activity)” value was “+ (“+” >25% increase in NMNAT2 luciferase activity at >25 μM.)”.
With `Cc1ccc(CNC(=O)C2CCc3c(c4ccccc4n3Cc3ccncc3)C2)o1` (stereo not drawn) [BC20279], the “E: compound efficacy for NMNAT2 activation (concentration giving >25% increase in NMNAT2 luciferase activity)” value is “+ (“+” >25% increase in NMNAT2 luciferase activity at >25 μM.)”.
Turning to `Cc1ccccc1CNC(=O)C1CCc2c(c3ccccc3n2Cc2ccncc2)C1` (stereo not drawn) [BC20280], the “E: compound efficacy for NMNAT2 activation (concentration giving >25% increase in NMNAT2 luciferase activity)” value is “+ (“+” >25% increase in NMNAT2 luciferase activity at >25 μM.)”.
The value for `Cc1cccc(CNC(=O)C2CCc3c(c4ccccc4n3Cc3ccncc3)C2)c1` (stereo not drawn) [BC20281] was “+ (“+” >25% increase in NMNAT2 luciferase activity at >25 μM.)”; that for `COc1ccccc1CNC(=O)C1CCc2c(c3ccccc3n2Cc2ccncc2)C1` (stereo not drawn) [BC20282] was “+ (“+” >25% increase in NMNAT2 luciferase activity at >25 μM.)”; that for `COc1cccc(CNC(=O)C2CCc3c(c4ccccc4n3Cc3ccncc3)C2)c1` (stereo not drawn) [BC20283] was “+ (“+” >25% increase in NMNAT2 luciferase activity at >25 μM.)”.
The value for `O=C(NCCc1ccccc1)C1CCc2c(c3ccccc3n2Cc2ccncc2)C1` (stereo not drawn) [BC20284] was “+ (“+” >25% increase in NMNAT2 luciferase activity at >25 μM.)”.
The value for `Cc1ccc(CNC(=O)Cn2c3c(c4ccccc42)CC(C(=O)NCc2ccco2)CC3)o1` (stereo not drawn) [BC20285] was “++ (“++” >25% increase in NMNAT2 luciferase activity at >1 μM ≤25 μM.)”; that for `O=C(Cn1c2c(c3ccccc31)CC(C(=O)NCc1ccco1)CC2)NCc1cccc(F)c1` (stereo not drawn) [BC20286] was “++ (“++” >25% increase in NMNAT2 luciferase activity at >1 μM ≤25 μM.)”; that for `Cc1ccccc1CNC(=O)Cn1c2c(c3ccccc31)CC(C(=O)NCc1ccco1)CC2` (stereo not drawn) [BC20287] was “++ (“++” >25% increase in NMNAT2 luciferase activity at >1 μM ≤25 μM.)”.
Regarding `Cc1cccc(CNC(=O)Cn2c3c(c4ccccc42)CC(C(=O)NCc2ccco2)CC3)c1` (stereo not drawn) [BC20288], the “E: compound efficacy for NMNAT2 activation (concentration giving >25% increase in NMNAT2 luciferase activity)” value was “++ (“++” >25% increase in NMNAT2 luciferase activity at >1 μM ≤25 μM.)”.
`COc1ccccc1CNC(=O)Cn1c2c(c3ccccc31)CC(C(=O)NCc1ccco1)CC2` (stereo not drawn) [BC20289]: the “E: compound efficacy for NMNAT2 activation (concentration giving >25% increase in NMNAT2 luciferase activity)” value is “+ (“+” >25% increase in NMNAT2 luciferase activity at >25 μM.)”.
The value for `COc1cccc(CNC(=O)Cn2c3c(c4ccccc42)CC(C(=O)NCc2ccco2)CC3)c1` (stereo not drawn) [BC20290] was “+ (“+” >25% increase in NMNAT2 luciferase activity at >25 μM.)”.
Turning to `O=C(Cn1c2c(c3ccccc31)CC(C(=O)NCc1ccco1)CC2)NCCc1ccccc1` (stereo not drawn) [BC20291], the “E: compound efficacy for NMNAT2 activation (concentration giving >25% increase in NMNAT2 luciferase activity)” value is listed as “++ (“++” >25% increase in NMNAT2 luciferase activity at >1 μM ≤25 μM.)”.
The value for `O=C(Cn1c2c(c3ccccc31)CC(C(=O)NCc1ccco1)CC2)NCc1cccnc1` (stereo not drawn) [BC20292] was “++ (“++” >25% increase in NMNAT2 luciferase activity at >1 μM ≤25 μM.)”; that for `COc1ccc(CN2CC(C(=O)c3cn(Cc4ccccc4F)c4ccccc34)CC2=O)c(OC)c1` (stereo not drawn) [BC20304] was “+ (“+” >25% increase in NMNAT2 luciferase activity at >25 μM.)”; that for `COC(=O)c1ccc2c(c1)c(C)c(C)n2Cc1ccccc1C` [BC20305] was “+ (“+” >25% increase in NMNAT2 luciferase activity at >25 μM.)”.
The value for `Cc1ccccc1Cn1c(C)c(C)c2cc(C(=O)O)ccc21` [BC20306] was “+ (“+” >25% increase in NMNAT2 luciferase activity at >25 μM.)”.
The value for `Cc1c(C)n(Cc2ccccc2)c2ccc(C(=O)N3CCc4occc4C3)cc12` [BC20307] was “+ (“+” >25% increase in NMNAT2 luciferase activity at >25 μM.)”; that for `O=C(NCc1ccco1)N1CCc2c(c3ccccc3n2Cc2cccc(F)c2)C1` [BC20308] was “++ (“++” >25% increase in NMNAT2 luciferase activity at >1 μM ≤25 μM.)”.
With `O=C(NCc1cccc(F)c1)N1CCc2c(c3ccccc3n2Cc2cccc(F)c2)C1` [BC20309], the “E: compound efficacy for NMNAT2 activation (concentration giving >25% increase in NMNAT2 luciferase activity)” value is “+ (“+” >25% increase in NMNAT2 luciferase activity at >25 μM.)”.
In the case of `COc1cccc(CNC(=O)N2CCc3c(c4ccccc4n3Cc3cccc(F)c3)C2)c1` [BC20310], the “E: compound efficacy for NMNAT2 activation (concentration giving >25% increase in NMNAT2 luciferase activity)” value is reported as “+ (“+” >25% increase in NMNAT2 luciferase activity at >25 μM.)”.
As for `O=C(NCCc1ccccc1)N1CCc2c(c3ccccc3n2Cc2cccc(F)c2)C1` [BC20311], the “E: compound efficacy for NMNAT2 activation (concentration giving >25% increase in NMNAT2 luciferase activity)” value is “+ (“+” >25% increase in NMNAT2 luciferase activity at >25 μM.)”.
For `Cc1cccc(NC(=O)N2CCc3c(c4ccccc4n3Cc3cccc(F)c3)C2)c1C` [BC20312], the “E: compound efficacy for NMNAT2 activation (concentration giving >25% increase in NMNAT2 luciferase activity)” value is reported as “+ (“+” >25% increase in NMNAT2 luciferase activity at >25 μM.)”.
The value for `Cc1ccc(C)c(Cn2cc3c4c(cccc42)C(=O)NCC3)c1` [BC20313] was “+ (“+” >25% increase in NMNAT2 luciferase activity at >25 μM.)”; that for `Cc1ccccc1CCN1CCc2cn(Cc3cccc(F)c3)c3cccc(c23)C1=O` [BC20314] was “+ (“+” >25% increase in NMNAT2 luciferase activity at >25 μM.)”.
Turning to `O=C1NCCc2cn(Cc3cccc(F)c3)c3cccc1c23` [BC20315], the “E: compound efficacy for NMNAT2 activation (concentration giving >25% increase in NMNAT2 luciferase activity)” value was “+ (“+” >25% increase in NMNAT2 luciferase activity at >25 μM.)”.
The value for `O=C(NCc1cccc(F)c1)C1CCc2c(c3ccccc3n2Cc2ccncc2)C1` (stereo not drawn) [BC20316] was “+ (“+” >25% increase in NMNAT2 luciferase activity at >25 μM.)”; that for `O=C(NCc1cccnc1)C1CCc2c(c3ccccc3n2Cc2ccncc2)C1` (stereo not drawn) [BC20317] was “+ (“+” >25% increase in NMNAT2 luciferase activity at >25 μM.)”.

Values taken from US20220169632A1, “METHODS AND MATERIALS FOR INCREASING OR MAINTAINING NICOTINAMIDE MONONUCLEOTIDE ADENYLYL TRANSFERASE-2 (NMNAT2) POLYPEPTIDE LEVELS” (University of Pittsburgh - Of the Commonwealth System of …, priority 2019, published 2022).
